Source: patent US20230040415A1 (PureTech LYT 100, Inc., priority 2020, published 2023)
Read-outs that look alike come from different tables or passages of the source.

How the values were obtained:
[1] = system: Primary Mouse Lung Fibroblasts; assay: Survival / TGF-β-induced proliferation of Primary Mouse Lung Fibroblasts (MTT); type: cell-based; details: 500 μM, 72 hrs
Experimental: Primary Mouse lung fibroblast were prepared as follows. One lung was removed from 2 months old male BalbC Mouse, perfused with sterile PBS, minced and incubated in 2 ml of serum free Dulbecco's Modified Eagle's Medium (DMEM) containing 100 μg/ml of collagenase I for one hour at 37° C. Each sample was centrifuged at 1500 r.p.m (revolution per minute) for 5 minutes, washed three times with PBS and the final cellular pellet was resuspended in DMEM supplemented with 10% serum and Pen/Strep, and incubated in 150 mm plates at 37° C. with 80% humidity and […]. The growth medium was removed and fresh medium was added every day for 10 days.
At the end of 10-day incubation period above, lung fibroblasts were confluent. […] One hundred μL of the growth medium was removed and 20 μL of MTT stock solution (prepared in PBS at 5.5 mg/ml concentration) was added and cells were incubated for 4 hrs, then 100 μl of DMSO was added, and absorbance of developed color was monitored at 540-690 nm.

[2] = system: Primary Mouse Lung Fibroblasts; assay: TGF-β-induced insoluble collagen synthesis, 96-well plate format (Sircol); type: cell-based; details: 500 μM, TGF-β 5 ng/ml, 72 hours, FIG. 4C; p=0.0003
Experimental: Approximately 5,000 primary mouse fibroblasts were plated in complete DMEM in 96 well plates and incubated for 3 days at which time the cultures achieved confluency. After cells reached confluency, the medium was removed and fresh DMEM supplemented with ascorbic acid (20 μg/ml) and prolin (10 μMol) was added. […] One hour later, TGF-β was added to the appropriate cultures at a final concentration of 5 ng/ml. After 72 hours, the media was replaced with a 0.5% glutaraldehyde solution. After 30 minutes, the adherent cells were washed and subsequently incubated with acetic acid at a final concentration of 0.5M. After a 30 min room temperature incubation, and subsequent washing steps, the wells were incubated with Sircol reagent. After 5 hours, the unbound dye was removed and the plates were washed and allowed to dry. To extract collagen-bound Sircol, 100 μL of alkaline solution (0.5M NaOH) was added and plates were shaken for 1 h on rotary shaker at room temperature. Absorbance at 600 nm was determined to detect bound collagen.

L929 cells [3] = assay: Survival of L929 cells (MTT); type: cell-based; details: 500 μM, 72 hrs
Experimental: Five thousand L929 cells were plated in completed DMEN and incubated until confluency for 3 days. Medium was removed and complete DMEM containing Prolin (20 μg/ml) and ascorbic acid (10 uM) was added. […], of medium was removed, […], MTT solution was added for 4 hrs, then 100 μl of DMSO was added, and absorbance of developed dark pink color was determined at […].

L929 cells [4] = assay: TGF-induced collagen synthesis in L929 cells, 96-well plate format (SIRCOL); type: cell-based; details: 500 μM
Experimental: Five thousand L929 cells were plated in complete DMEN and incubated until confluency for 3 days. Medium was removed and complete DMEM containing Prolin (20 μg/ml) and ascorbic acid (10 μM) was added. […] Cells were further incubated for 72 hrs. Supernatant was removed, 0.5% gluteraldehyde was added for 30 min at RT, removed, washed 3× with dd water, 0.5 M acetic acid was added for 30 min at RT, removed, washed with water, air dried and 100 μl SIRCOL dye was added for 5 h at RT. Dye was removed, plate was washed extensively under running water, air dried and 200 μl of 0.5 M NaOH was added, plates were shaken at RT for 1 h, and OD was determined at 600 nm.

NASH mice = assay: NASH mouse model (streptozotocin + high fat diet), liver histology; type: in vivo; details: n = 8
From the text: Non-alcoholic steatohepatitis (NASH) is characterized by lobular inflammation, hepatocyte ballooning and degeneration progressing to liver fibrosis. […] In addition, nine non-NASH mice were fed with a normal diet and monitored.

[5] = Food effect study Part 2, single 500 mg dose fed vs fasted; type: in vivo, human; details: human, plasma, oral, 500 mg, LYT-100 @500 mg single dose, analyte = label
Experimental: The comparison will be based on Day 1, Day 2 and Day 3 PK plasma samples after the first dose of study drug on Day 1 under fast and fed conditions of Part 2.
Subjects will be admitted to the CRU on Day −1 and will fast overnight for at least 10 h.

L929 cells [6] = assay: TGF-induced soluble collagen synthesis in L929 cells (ELISA); type: cell-based; details: 500 μM
Experimental: Five thousand L929 cells were plated in complete DMEN and incubated until confluency for 3 days. Medium was removed and complete DMEM containing Prolin (20 μg/ml) and ascorbic acid (10 μM) was added. […] Cells were further incubated for 72 hrs. 200 μl supernatant of 96-well SIRCOL plate was placed onto ELISA plate and incubated 0/N. Next day, supernatant was removed and 100 ul of 1% BSA in PBST was added and incubated for 2 h at RT, BSA was removed, plate was washed 3× with 200 μl of PBST, and anti-collagen type I a.b was added at 1:2000 dilution (prepared in %1 BSA in PBST), incubated at RT for 1 h, primary a.b was removed, plate was washed 3× with 200 μl PBST, and secondary anti-goat HRP was added at 1:2000 dilution, incubate at RT for 1 h, removed, plate was washed 3× with 200 μl PBST and 100 μl of TMB solution was added for color development for 15 min, then 100 μl of 2 N H2SO4 was added to stop the reaction and O.D of developed yellow color was determined at 450 nm.

[7] = MAD study adverse event profile; type: in vivo
From the text: All subjects in Part 1 and Part 2 will be monitored for safety (including assessment of chemistry, haematology and urinalysis parameters, electrocardiograms [ECGs], vital signs and adverse events [AEs]) and samples will be collected for assessment of PK at predefined time points pre and post-dose as delineated in the Schedule of Events.

L929 cells [8] = assay: TGF-induced soluble fibronectin synthesis in L929 cells (ELISA); type: cell-based; details: 500 μM, in the absence and presence of TGF-β-induction
From the text: Fibronectin is another important component of fibrotic lungs as it is induced by TGF-β and functions both as a structural component of extra cellular matrix as well as well as a ligand for integrin receptors. Just like soluble collagen, binding of fibronectin to integrin receptors induces the proliferation of fibroblast and epithelial cells of the lungs.

## [2H]C([2H])([2H])c1ccc(=O)n(-c2ccccc2)c1 [LYT-100, 5-(methyl-d3)-1-phenylpyridin-2-(1H)-one]
[1]; without TGF-β
  survival of PMLF alone: did not affect the survival
[1]; TGF-β 5 ng/ml, not statistically significant (p=0.19)
  diminution of TGF-β-induced proliferation of PMLF: 10%
[2]
  diminution of TGF-β-stimulated insoluble collagen accumulation: 24%
L929 cells [3]
  survival of L929 cells: does not affect survival
L929 cells [4]
  total collagen level in the absence of TGF-β induction: significantly inhibited or reduced
L929 cells [4]; TGF-β 5 ng/ml, 72 hrs
  TGF-β-induced total collagen levels: significantly inhibited or reduced
NASH mice; 30 mg/kg twice daily oral
  NAS (mean ± SD): 4.0 ± 1.1
NASH mice
  Hepatocyte ballooning score 2 (Many cells/prominent ballooning), number of animals: 8
  Lobular Inflammation score 1 (<2 foci/200x), number of animals: 5
  Lobular Inflammation score 2 (2-4 foci/200x), number of animals: 3
  Steatosis score 0 (<5%), number of animals: 4
  Steatosis score 1 (5-33%), number of animals: 3
  Steatosis score 2 (>33%-66%), number of animals: 1
[5]; read-out: AUC, Fasted
  AUC: 60900 ng·h/mL
[5]; read-out: AUC, Fed
  AUC: 49500 ng·h/mL
[5]; read-out: Cmax, Fasted
  Cmax: 10300 ng/mL
[5]; read-out: Cmax, Fed
  Cmax: 7900 ng/mL
L929 cells [6]
  soluble collagen levels in the absence of TGF-β-induction: significantly reduced
L929 cells [6]; TGF-β 5 ng/ml, 72 hrs
  TGF-β-induced soluble collagen levels: significantly inhibits
[7]; 750 mg BID
  tolerability of 750 mg dosing: surprisingly well tolerated
[7]; blinded MAD data
  most common adverse events: headache and mild abdominal discomfort
[7]; blinded MAD data, 100-1000 mg BID, 5 days
  severity of adverse events: mild and transient
L929 cells [8]
  soluble fibronectin levels: significantly reduced
